Assay results from ChEMBL document CHEMBL1148144, “Horiolide, a novel norditerpenoid from Indian ocean soft coral of the genus Sinularia” (J Nat Prod, 2002).
Active and inactive are the calls of the source.

Legend:
Assay type in all cases: functional, organism-based
Bacillus subtilis = test: Antibacterial activity against Bacillus subtilis
Staphylococcus aureus = test: Antibacterial activity against Staphylococcus aureus
Chlorella sorokiniana = test: Antialgal activity against Chlorella sorokiniana
Chlorella salina = test: Antialgal activity against Chlorella salina
Escherichia coli = test: Antibacterial activity against Escherichia coli
Rhizomucor miehei = test: Antifungal activity against Mucor miehei
Chlorella vulgaris = test: Antialgal activity against Chlorella vulgaris

Measured: Activity

C=C(C)[C@@H]1CC(=O)[C@H]2[C@H](C1)[C@@H]1C(=O)O[C@H]3[C@@H]1CC(=O)[C@H]2[C@H]3C(C)=O
inactive: all assays above
